PubChem BioAssay AID624405 (Broad Institute, 2012)
Inconclusive results are not listed.

What follows are compounds tested on C2C12 myotubes + simvastatin, ATP luminescence, 48 h (assay: suppressors of statin myotoxicity in myotubes, dose response, cell-based, C2C12 myotubes, ATP luminescence, cherry pick (AID 624405);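 note: myotubes are challenged with simvastatin at 10 µM to lower ATP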).

Structure (SMILES)	AC40 [µM]
C[C@@H]1CN([C@H](C)CO)C(=O)c2cc(NS(=O)(=O)c3ccc(Cl)cc3)ccc2O[C@@H]1CN(C)Cc1ccc(C(=O)Nc2ccccc2N)cc1	11.3
C[C@H](CO)N1C[C@H](C)[C@@H](CN(C)Cc2ccc(Cl)c(Cl)c2)Oc2ccc(NS(=O)(=O)c3ccc(F)cc3)cc2CC1=O	19
COc1ccc(S(=O)(=O)N(C)C[C@H]2Oc3c(NC(=O)Nc4ccccc4)cccc3C(=O)N([C@H](C)CO)C[C@H]2C)cc1	4.87
Cc1ccc(S(=O)(=O)N2CCN(S(=O)(=O)c3ccc(C)cc3)C2c2ccccc2)cc1	18.6
CCOc1ccc2nc(N3CCCC(C(=O)N4CCN(CC)CC4)C3)sc2c1 (stereo not drawn)	6.42
CC(C)OC(=O)N(C)C[C@@H]1OCc2ccccc2-c2c(n(C)c3ccccc23)C(=O)N([C@H](C)CO)C[C@H]1C	18.1
O=C(Nc1ccc2nc3n(c(=O)c2c1)CCCCC3)c1c(F)ccc([N+](=O)[O-])c1F	4.3
Cc1ccc(O)c(NC(=O)c2cc(-c3cccs3)on2)c1	14.3
CC(C)Nc1ncnc2c1cnn2Cc1ccc(Cl)cc1	0.544
Cc1cccc(-n2c(O)c(C=NC3CCS(=O)(=O)C3)c3ccccc3c2=O)c1 (stereo not drawn)	17.6
COc1ccccc1C(=O)Nc1ccc2c(c1)OCO2	4.38
C[C@@H]1CN([C@@H](C)CO)C(=O)c2cc(NC(=O)Nc3cccc4ccccc34)ccc2O[C@@H]1CN(C)Cc1ccc(C(=O)Nc2ccccc2N)cc1	2.85
Cc1cccc(S(=O)(=O)N2CCCCN3[C@H](CO)[C@@H](c4ccc(C#C[C@H](C)O)cc4)[C@@H]3C2)c1	17.3
Cc1ccc(S(=O)(=O)Nc2ccc3c(c2)C(=O)N([C@H](C)CO)C[C@H](C)[C@H](CN(C)Cc2ccc(C(=O)Nc4ccccc4N)cc2)O3)cc1	17
C[C@@H]1CN([C@H](C)CO)C(=O)Cc2cc(NS(C)(=O)=O)ccc2O[C@@H]1CN(C)Cc1ccc(-c2ccccc2)cc1	18.4
C[C@H]1CN([C@@H](C)CO)C(=O)Cc2cc(NC(=O)Nc3cccc4ccccc34)ccc2O[C@H]1CN(C)Cc1ccc(C(=O)Nc2ccccc2N)cc1	2.05
C[C@@H]1CN([C@H](C)CO)C(=O)Cc2cc(NC(=O)CCCCCC(=O)Nc3ccccc3N)ccc2O[C@@H]1CN(C)Cc1ccc(Cl)c(Cl)c1	9.57
C/C=C/Cn1c(SCc2ccccc2)nc2c1c(=O)[nH]c(=O)n2C	0.556
O=C(C#Cc1ccccc1)Nc1cccc(F)c1	3.42
N#C[C@@H]1[C@@H](c2ccc(-c3ccc(F)cc3)cc2)[C@H](CO)N1C(=O)Cc1ccccc1	9.36
O=C(C1CCC1)N1CCCc2cc(S(=O)(=O)N3CCN(c4ccccc4)CC3)ccc21	16.6
Cc1ccc(S(=O)(=O)N(C)C[C@@H]2Oc3ccc(NS(=O)(=O)c4ccc(Cl)cc4)cc3C(=O)N([C@H](C)CO)C[C@@H]2C)cc1	8.22

Structure (SMILES)	AC40 [µM]
C[C@@H]1CN([C@H](C)CO)C(=O)c2cccc(NC(=O)c3nc4ccccc4s3)c2O[C@@H]1CN(C)Cc1ccc(C(=O)Nc2ccccc2N)cc1	0.462
CCCCCCn1c(C(C)O)nc2ccccc21 (stereo not drawn)	1.94
C[C@H](CO)N1C[C@H](C)[C@H](CN(C)Cc2ccc(Cl)c(Cl)c2)Oc2ccc(NC(=O)CCCCCC(=O)Nc3ccccc3N)cc2CC1=O	13.4
COc1ccc(S(=O)(=O)Nc2ccc3c(c2)CC(=O)N([C@@H](C)CO)C[C@@H](C)[C@H](CN(C)Cc2ccc(-c4ccccc4)cc2)O3)cc1	11
CC(C)CC#Cc1cnc2c(c1)C(=O)N([C@H](C)CO)C[C@H](C)[C@@H](CN(C)C(=O)Cc1ccccc1)O2	9.7
C[C@@H]1CN([C@H](C)CO)C(=O)c2cccc(NC(=O)Nc3ccc4c(c3)OCO4)c2O[C@H]1CN(C)Cc1ccc(C(=O)Nc2ccccc2N)cc1	0.893
Cc1onc(-c2ccccc2Cl)c1C(=O)NCc1nc(-c2ccccc2)no1	8.26
CCC(=O)/C=C1/Sc2ccccc2N1CC	7.21
Cc1ccc(C2CC2c2n[nH]c(=S)n2-c2ccc(C)cc2)cc1 (stereo not drawn)	6.33
CC1Cc2ccccc2N1C(=O)CSc1nnc(Cc2ccccc2)n1CCc1ccccc1 (stereo not drawn)	8.6
c1ccc(-c2csc3nnc(SCc4ccc5c(c4)OCCO5)n23)cc1	3.7
Cc1cccn2c(=O)c(C=O)c(N3CCCCCC3)nc12	15.1
CC(=O)Nc1nc2n(n1)C(c1ccc(F)cc1)C=C(c1ccccc1)N2 (stereo not drawn)	1.77
CCCCNc1oc(-c2cccs2)nc1S(=O)(=O)c1ccccc1	7.73
COC(=O)[C@@]12CCCCN1[C@H](c1ccc(-c3cccc(Cl)c3)c(OC)c1)[C@@H]1C(=O)N(C)C(=O)[C@@H]12	2.72
C[C@H]1CN([C@@H](C)CO)C(=O)c2cc(NC(=O)Nc3cccc4ccccc34)ccc2O[C@H]1CN(C)Cc1ccc(C(=O)Nc2ccccc2N)cc1	5.45
CCCCn1c(C(C)NC(=O)c2cccs2)nc2ccccc21 (stereo not drawn)	3.75
NS(=O)(=O)OCC(Cc1ccccc1)N1C(=O)c2ccccc2C1=O (stereo not drawn)	14.6
C[C@@H]1CN([C@H](C)CO)C(=O)c2cc(NC(=O)Nc3cccc4ccccc34)ccc2O[C@H]1CN(C)Cc1ccc(C(=O)Nc2ccccc2N)cc1	17
COc1ccc(CN(C)C[C@H]2Oc3ccc(NS(=O)(=O)c4ccc(Cl)cc4)cc3CC(=O)N([C@@H](C)CO)C[C@@H]2C)cc1	0.484
COc1ccccc1-c1noc(-c2cccs2)n1	0.575
Clc1ccc(Cn2ncc3c(N4CCCCC4)ncnc32)cc1	15.8

Structure (SMILES)	AC40 [µM]
COc1ccc(S(=O)(=O)Nc2ccc3c(c2)CC(=O)N([C@H](C)CO)C[C@@H](C)[C@H](CN(C)CC2CCCCC2)O3)cc1	2.63
COc1cccc(-c2ccc([C@@H]3[C@@H](C#N)N(C(=O)Cc4ccccc4)[C@H]3CO)cc2)c1	11.5
Cc1ccc(S(=O)(=O)Nc2ccc3c(c2)CC(=O)N([C@@H](C)CO)C[C@@H](C)[C@H](CN(C)Cc2ccc(-c4ccccc4)cc2)O3)cc1	1.17
CCSC1(SCC)N=C(N)C2(C#N)C(c3ccc(F)cc3)C12C#N (stereo not drawn)	6.36
O=C(NCc1ccco1)c1cc2sccc2n1Cc1ccccc1	0.839
Oc1ccc(Cl)cc1C1=NNC(c2cccs2)C1 (stereo not drawn)	11.4
CCOc1ccccc1NC(=O)C1CCCN(S(=O)(=O)c2ccc(OC)c(C)c2)C1 (stereo not drawn)	8.06
C[C@H](CO)N1C[C@H](C)[C@H](CN(C)Cc2ccc(C(=O)Nc3ccccc3N)cc2)Oc2ccc(NC(=O)Nc3cccc4ccccc34)cc2C1=O	8.83
C[C@H](CO)N1C[C@H](C)[C@@H](CN(C)Cc2ccc(C(F)(F)F)cc2)Oc2ccc(NS(=O)(=O)c3ccc(F)cc3)cc2CC1=O	18.2
O=c1[nH]cnc2scc(-c3ccsc3)c12	13.2
C[C@H](CO)N1C[C@H](C)[C@@H](CN(C)Cc2ccc(C(F)(F)F)cc2)Oc2ccc(NC(=O)CCCCCC(=O)Nc3ccccc3N)cc2CC1=O	8.51
CC(=O)C(=Nc1ccccc1Cl)NNc1ccc(Cl)cc1	6.58
N#C[C@@H]1[C@@H](c2ccc(-c3cccc(F)c3)cc2)[C@H](CO)N1C(=O)NC1CCCC1	0.38
C[C@H]1CN([C@@H](C)CO)C(=O)Cc2cc(NC(=O)CCCCCC(=O)Nc3ccccc3N)ccc2O[C@H]1CN(C)Cc1ccc(C(F)(F)F)cc1	4.15
O=C(NCc1ccco1)C1CCN(C(=O)c2cc3sccc3n2Cc2ccc(F)cc2)CC1	12.1
Cc1noc(C)c1S(=O)(=O)Nc1ccc2c(c1)CC(=O)N([C@H](C)CO)C[C@H](C)[C@@H](CN(C)Cc1ccc(C(F)(F)F)cc1)O2	4.59
O=C(CSCc1cnn(-c2ccccc2)c1-n1cccc1)NCc1cccs1	18.9
CCOCCCN1CN(S(=O)(=O)c2ccc(Cl)cc2)c2nc3ccccc3nc21	1.87
CCOC(=O)N1CCN(C(=O)C(c2ccccc2)c2ccccc2)CC1	5.75
C[C@@H]1CN([C@H](C)CO)C(=O)c2cccc(NC(=O)Nc3ccccc3)c2O[C@H]1CN(C)Cc1ccc(C(=O)Nc2ccccc2N)cc1	11
CN1C(=O)c2ccc(N(C)C)cc2C1=O	9.68
Cc1ccc(C2(c3ccc(C)cc3)NC(=O)N(Cc3c(C)noc3C)C2=O)cc1	5.45

Structure (SMILES)	AC40 [µM]
COc1ccc(C)cc1C(=O)C1CC(C(=O)O)C(C)(C)C1C (stereo not drawn)	10.6
C[C@H](CO)N1C[C@H](C)[C@H](CN(C)Cc2ccc(C(=O)Nc3ccccc3N)cc2)Oc2ccc(NC(=O)Nc3ccc(F)cc3)cc2CC1=O	1.97
O=C(NCC(c1cccnc1)N1CCN(c2ccc(F)cc2)CC1)c1ccc2c(c1)OCO2 (stereo not drawn)	5.7
O=C1c2ccccc2-c2onc3ccc(Oc4ccccc4)c1c23	5.91
C[C@@H]1CN([C@H](C)CO)C(=O)Cc2cc(NS(=O)(=O)c3ccc(Cl)cc3)ccc2O[C@H]1CN(C)Cc1ccccc1	4.44
C[C@H]1CN([C@@H](C)CO)C(=O)c2cc(N(C)C)ccc2O[C@@H]1CN(C)Cc1ccc(C(=O)Nc2ccccc2N)cc1	5.34
CC1(Cc2ccccc2OC(F)(F)F)C(=O)Nc2ccc(S(=O)(=O)NC3CCCCC3)cc21 (stereo not drawn)	6.62
C[C@H]1CN([C@@H](C)CO)C(=O)Cc2cc(NC(=O)CCCCCC(=O)Nc3ccccc3N)ccc2O[C@H]1CN(C)CC1CCCCC1	2.67
c1coc(-c2nc3ccccc3s2)c1	18
CC1CCN(S(=O)(=O)c2ccc(NC(=O)C3CCN(C(=O)c4ccco4)CC3)cc2)CC1	6.94
C[C@@H]1CN([C@@H](C)CO)C(=O)c2cc(NC(=O)Nc3cccc4ccccc34)ccc2O[C@H]1CN(C)Cc1ccc(C(=O)Nc2ccccc2N)cc1	15.2
COCc1nc2ccccc2n1CCCOc1ccccc1	13.4
O=C(Nc1cccc(O)c1)c1cc(-c2cccs2)on1	5.99
CCS(=O)(=O)c1ncc(Cl)c(C(=O)Nc2ccc(C)cc2)n1	2.8
C[C@@H]1CN([C@H](C)CO)C(=O)Cc2cc(NC(=O)CCCCCC(=O)Nc3ccccc3N)ccc2O[C@H]1CN(C)Cc1ccc(-c2ccccc2)cc1	6.3
CCOC(=O)Cc1csc(NC(=O)CC(C)(C)C)n1	2.56
O=C(CCNS(=O)(=O)c1ccc(Br)cc1)NCc1ccc2c(c1)OCO2	14.8
C=CCn1c(=O)[nH]c(=O)c2c(N)c(C(=O)c3ccc(OC)cc3)sc21	14.5
C[C@H]1CN([C@@H](C)CO)C(=O)c2cc(C#Cc3ccncc3)cnc2O[C@@H]1CN(C)CC1CCCC1	4.52
CCC(C(=O)NC1CCCC1)N(C(=O)Cn1nnc(-c2ccc(OC)c(OC)c2)n1)c1cccc(O)c1 (stereo not drawn)	8.39
CCCn1c(NC(=O)c2ccco2)nc2ccccc21	1.39
Oc1ccc(-c2csc(Nc3ccc4c(c3)OCO4)n2)c(O)c1	10.5
